# Data reported in patent US20190365745A1, “USE OF CHRONIC TREATMENT WITH ATR INHIBITORS TO SENSITIZE CANCER CELLS TO PARP INHIBITORS” (Cornell University, priority 2018, published 2019).
# Entries after “also recorded” stand apart in the source; their conditions may differ.
# Key:
# Format in all cases: cell-based, Human
# [1] = tested on: U2OS cells; test: DR-GFP assay of HR-mediated repair
# Protocol: (§1) Human U2OS, HCT116, hTERT RPE-1, HEK293T, HeLa, U87, T98G, A2780, and human skin fibroblast cells (GM08398 and GM18366) were grown in DMEM media supplemented with 10% bovine calf serum, penicillin/streptomycin and non-essential amino acids. SV40 large T antigen transformed hTERT RPE-1 cells were generated by infecting hTERT RPE-1 cells with a SV40 large T antigen (SV40 LT)-expressing retrovirus and were selected using 500 μg/ml G418. The stable SV40 large T antigen transformed hTERT RPE-1 cell line was then maintained in culture media supplemented 500 μg/ml G418. For chronic treatment with ATR inhibitor (ATRi, VE-821) or ATM inhibitor (ATMi, KU-55933), cells were maintained in media with 5 μM ATR or ATM inhibitor respectively for 8 days before cells were subjected to western blot analysis, proteomic analysis, DR-GFP/EJ5-GFP assay or immunofluorescent staining. For CHK1 inhibitor (UCN-01), cells were treated for 5 days with 0.2 μM of inhibitor before the analysis. Primary human fibroblast cells from control subjects (GM08398) and patients with Seckel syndrome (GM18366, ATR-defective) were obtained from Coriell Institute for Medical Research, Camden, N.J.
# For the DR-GFP assay, cells (U2OS, HCT116, hTERT RPE-1, HEK293T, HeLa, U87, T98G, A2780, 293-T-REX-E2F6 cells and SV40 large T antigen transformed hTERT RPE-1) were transfected with the mCherry plasmid or DR-GFP reporter plasmid (pDR-GFP; addgene plasmid 26475) together with a plasmid coding for I-SceI (pCBASceI; addgene plasmid 26477) or DR-GFP reporter plasmid together with an empty plasmid pCAGGS. Two days after transfection, cells were trypsinized, resuspended in PBS and then analyzed by flow cytometry using FACSAria Fusion or Accuri C6 cytometer (BD). In each experiment, the percentage of GFP-positive cells from the sample transfected with empty plasmid pCAGGS was subtracted from the percentage of GFP-positive cells in the sample transfected with I-SceI. The GFP percentage was then normalized by the mCherry transfection efficiency. Each graph was plotted based on at least 3 independent experiments showing mean±SEM (N≥3). For the EJ5-GFP assay, EJ5-GFP reporter plasmid (pimEJ5GFP, addgene plasmid 44026) was used instead of DR-GFP reporter plasmid and the assay was performed as described for DR-GFP assay.
# [2] = tested on: U2OS cells; test: EJ5-GFP (NHEJ) assay; details: 5 μM ATRi, 8 days
# Protocol: Human U2OS, HCT116, hTERT RPE-1, HEK293T, HeLa, U87, T98G, A2780, and human skin fibroblast cells (GM08398 and GM18366) were grown in DMEM media supplemented with 10% bovine calf serum, penicillin/streptomycin and non-essential amino acids. SV40 large T antigen transformed hTERT RPE-1 cells were generated by infecting hTERT RPE-1 cells with a SV40 large T antigen (SV40 LT)-expressing retrovirus and were selected using 500 μg/ml G418. The stable SV40 large T antigen transformed hTERT RPE-1 cell line was then maintained in culture media supplemented 500 μg/ml G418. […]
# (§2) For the DR-GFP assay, cells (U2OS, HCT116, hTERT RPE-1, HEK293T, HeLa, U87, T98G, A2780, 293-T-REX-E2F6 cells and SV40 large T antigen transformed hTERT RPE-1) were transfected with the mCherry plasmid or DR-GFP reporter plasmid (pDR-GFP; addgene plasmid 26475) together with a plasmid coding for I-SceI (pCBASceI; addgene plasmid 26477) or DR-GFP reporter plasmid together with an empty plasmid pCAGGS. Two days after transfection, cells were trypsinized, resuspended in PBS and then analyzed by flow cytometry using FACSAria Fusion or Accuri C6 cytometer (BD). […]
# [3] = tested on: U2OS cells; test: Cell cycle analysis (propidium iodide, flow cytometry); details: chronic 5 μM ATRi
# Protocol: Cells were harvested by standard trypsinization and fixed with 70% ethanol. After fixation, cells from each sample were resuspended in PBS, permeabilized using 0.1% Triton X-100 and treated with RNase A (0.8 mg/ml). Then cells were stained with propidium iodide and analyzed by flow cytometry using FACSAria Fusion (BD) or Accuri C6 cytometer (BD) to determine the fraction of cells in different stages of the cell cycle.
# [4] = tested on: U2OS cells; test: DNA damage in cells undergoing chronic ATR inhibition alone
# [5] = tested on: U2OS cells; test: Immunoblotting of HR factor abundance
# Protocol: FIG. 5A is a schematic diagram of the SILAC/MS experiment. FIG. 5B is a quadrant diagram of the SILAC/MS experiment. Each dot represents a different identified protein. Proteins with abundance reduced two-fold or more after ATRi treatment are shown in the upper-left corner (white quadrant). FIG. 5C is a WB analysis of U2OS cells after 8 days of chronic treatment with 5 μM of ATRi or ATMi. FIG. 5D is a time course WB analysis of U2OS cells during chronic treatment with 5 μM ATRi. FIG. 5E is a WB analysis of U2OS cells at distinct cell cycle stages. Cells were treated with 1 mM hydroxyurea (HU) or 50 ng/ml nocodazole (Noc) for 24 hours. HU treated cells were released for 2.5 hours in HU-free media. FIG. 5F is a WB analysis of U2OS cells untreated or treated for 8 days with 5 μM ATRi.
# as §1
# (§3) Cells were harvested and lysed in modified radioimmunoprecipitation assay (RIPA) buffer (50 mM Tris-HCl pH 7.5, 150 mM NaCl, 1% tergitol, 0.25% sodium deoxycholate, 5 mM EDTA) supplemented with Complete EDTA-free protease inhibitor cocktail (Roche), 1 mM PMSF, 5 mM sodium fluoride, 10 mM β-glycerol-phosphate and 0.4 mM sodium orthovanadate. Whole cell lysates were cleared with 5 minute centrifugation at 13,000 rpm at 4° C. and mixed with 3×SDS sample buffer (bromophenol blue, stacking gel buffer, 50% glycerol, 3% SDS and 60 mM DTT). After being resolved on SDS-PAGE gels, proteins were then transferred onto polyvinylidene difluoride (PVDF) membranes and detected with designated antibodies.
# [6] = tested on: U2OS cells; test: Cycloheximide protein stability western blot; details: CHX 50 μg/ml with 5 μM ATRi vs CHX alone
# Protocol: Fresh media containing CHX or CHX/ATRi was added every 6 hours. The right panel is a bar graph generated by measuring the intensity of the BRCA1 band from three independent experiments. Two-tailed Student's t-test was used for the statistics (Error bars=SD, N=3, ****P-value<0.0001).
# as §3
# [7] = tested on: hTERT RPE-1 cells; test: Immunoblotting of HR factor abundance; details: 5 μM ATRi, 8 days
# Protocol: (§4) FIGS. 14A-14B show WB analysis of hTERT RPE-1 (FIG. 14A) or HCT116 (colon cancer)(FIG. 14B) cells after 8 day chronic treatment with 5 μM ATRi or ATMi. […] FIGS. 14D-14E are bar graphs showing the analysis of HR-mediated repair using the DR-GFP system. Relative fold change of GFP positive hTERT RPE-1 (FIG. 14D) or HCT116 (FIG. 14E) cells over DMSO after ATRi treatment. (Error bars=SEM, N≥3, ****P-value<0.0001; one sample-t-test was used for the statistical analysis comparing 2 days versus 8 days of treatment).
# (§5) Human U2OS, HCT116, hTERT RPE-1, HEK293T, HeLa, U87, T98G, A2780, and human skin fibroblast cells (GM08398 and GM18366) were grown in DMEM media supplemented with 10% bovine calf serum, penicillin/streptomycin and non-essential amino acids. […]
# (§6) Cells were harvested and lysed in modified radioimmunoprecipitation assay (RIPA) buffer (50 mM Tris-HCl pH 7.5, 150 mM NaCl, 1% tergitol, 0.25% sodium deoxycholate, 5 mM EDTA) supplemented with Complete EDTA-free protease inhibitor cocktail (Roche), 1 mM PMSF, 5 mM sodium fluoride, 10 mM β-glycerol-phosphate and 0.4 mM sodium orthovanadate. […] After being resolved on SDS-PAGE gels, proteins were then transferred onto polyvinylidene difluoride (PVDF) membranes and detected with designated antibodies.
# [8] = tested on: HCT116 (colon cancer) and indicated cancer cell lines; test: Immunoblotting of HR factor abundance in cancer cell lines; details: cancer cells; 5 μM ATRi, 8 days
# Protocol: as §4, §5, §6
# [9] = tested on: HCT116 colon cancer cell line; test: DR-GFP assay of HR-mediated repair; details: ATRi 8 days vs 2 days
# Protocol: as §4, §5, §2
# [10] = tested on: hTERT RPE-1 cells; test: DR-GFP assay of HR-mediated repair; details: ATRi 8 days vs 2 days
# Protocol: as §4, §5, §2
smiles,measurement,setting,value
"CS(=O)(=O)c1ccc(-c2cnc(N)c(C(=O)Nc3ccccc3)n2)cc1 [ATRi, VE-821]","HR-mediated repair efficiency (DR-GFP, GFP positive cells over DMSO)","[1]; 5 μM, chronic 8 days",strikingly more severe impairment in HR-mediated repair as compared to short-term ATR inhibition
same,HR (DR-GFP) upon short-term ATR inhibition,[1]; short-term (2 days) ATRi,modest reduction in HR
same,NHEJ efficiency (EJ5-GFP),[2],does not result in a significant change in NHEJ efficiency
same,Cell cycle distribution (S-phase cells),[3],minor increase in the number of S-phase cells; also recorded: slight increase in S phase cells
same,DNA damage,[4],not detectable
same,Changes in abundance of NHEJ factors 53BP1 and PTIP (WB),"[5]; 5 μM ATRi, 8 days",minimal
same,"Changes in protein abundance, time course (WB)","[5]; 5 μM ATRi, after 2 and 4 days",minor changes in protein abundance
same,"Changes in protein abundance, time course (WB)","[5]; 5 μM ATRi, after 6 and 8 days",changes become more striking
same,Abundance of several proteins involved in HR-mediated repair (WB),[5]; chronic ATR inhibition,severely reduced
same,Protein levels of RAD51 and TOPBP1 (WB),"[5]; chronic ATR inhibition, 5 μM, 8 days",reduced
same,Abundance of the other HR proteins monitored in CHX-treated cells,[6],did not change
same,Protein levels of BRCA1 in CHX-treated cells,[6],decreased
same,Abundance of BRCA1 (WB),[7],did not result in major changes in the abundance of BRCA1
same,Abundance of BRCA1 (WB),[8],severe reduction in the abundance of BRCA1
same,"HR-mediated repair efficiency (DR-GFP), chronic vs short-term treatment",[9],significantly more severe than that of short-term treatment
same,"HR-mediated repair efficiency (DR-GFP), chronic vs short-term (2 day) treatment",[10],did not result in a striking drop in HR-mediated repair efficiency
